What all share (type): cell-based, human
The subject of test [1] is GD-OF. As to the kind of experiment: icIL-1RA and sIL-1RA protein (ELISA). Here is the method:
(§1) FIGS. 11A-11F are graphs showing teprotumumab attenuates bTSH induced IL-10 while enhancing icIL-1RA and sIL-1RA expression in fibrocytes and GD-OF. Fibrocyte cultures were treated with teprotumumab (50 μg/ml), rhSlit2 (50 ng/ml) or human Isotype IgG for 7-9 d, with bTSH (5 mIU/mL) for final 6 h. RNA was extracted and reverse transcribed. Isolated cDNA was subjected to quantitative real-time PCR for IL-10 (FIGS. 11A and 11B), icIL-1RA (FIGS. 11C and 11D). Media and cellular proteins were collected and subjected to specific ELISAs for icIL-1RA and sIL-1RA (FIGS. 11E, 11F, 11G, and 11H). PCR values were normalized to their respective GAPDH levels. icIL-1RA and sIL-1RA protein levels were normalized to cellular protein levels. Data are expressed as the mean±SD of three independent determinations. Experiments were repeated three times. **, p<0.01; ***. P<0.001.

Test [2] relates to fibrocytes and GD-OF. The test can be described thus: BAFF expression and induction by bTSH. The conditions noted are these: teprotumumab 50 μg/ml or rhSlit2 50 ng/ml. The protocol:
FIGS. 12A-12F are graphs showing the effect of bTSH, teprotumumab, and Slit2 on B-cell activating factor (BAFF) expression in fibrocytes and GD-OF. In FIGS. 12A and 12B, cultures were treated for the graded intervals indicated along the abscissas with bTSH (5 mIU/mL). Cellular RNA was harvested and subjected to reverse transcription by RT-PCR (FIG. 12A). Values were normalized to their respective GAPDH levels Medium was assayed for BAFF levels with an ELISA (FIG. 12B). Values were normalized to respective monolayer protein content. Data are expressed as mean f SD of triplicate determinations; *, p<0.05; **, p<0.01; ***, p<0.001. In FIGS. 12C-12F, bTSH, teprotumumab (50 μg/ml) or recombinant human Slit2 (rhSlit2) (50 ng/ml) were added to culture media for the times indicated and analyzed for BAFF mRNA levels as in FIG. 12A. In FIGS. 12F, parental GD-OF strains were sorted into pure CD34^+ and CD34^− subsets. Subsets were then cultured for 48 h, the final 6 h in the absence or presence of bTSH. Data were expressed as mean f SD of triplicate independent determinations from a single experiment representative of three conducted. *, p<0.05; **, p<0.01
IL-12, IL-23, IL-10, HA and BAFF ELISAs. Confluent cultures were treated with nothing or teprotumumab (50 μg/mL) for 5 d, without or with bTSH (5 mU/mL) for the intervals indicated or 72 h. […]

In test [3] the test system is fibrocytes. The test can be described thus: IL-10, icIL-1RA, sIL-1RA expression (PCR, ELISA). Here is the method:
as §1
IL-12, IL-23, IL-10, HA and BAFF ELISAs. Confluent cultures were treated with nothing or teprotumumab (50 μg/mL) for 5 d, without or with bTSH (5 mU/mL) for the intervals indicated or 72 h. Media and rinsed cell layers were homogenized in 0.1M NaCl and assayed for HA content using an ELISA kit (K-1200) from Echelon Biosciences Inc. (Salt Lake City, UT) according to manufacturer's instructions. A BAFF specific ELISA, purchased from R & D systems, was used in accordance with the manufacturer's instructions.
(§2) Real-time PCR Confluent fibrocyte and GD-OF cultures were incubated with bTSH (5 mIU/mL), teprotumumab (50 μg/mL) or linsitinib (1 μM) for the time intervals indicated, washed with PBS and RNA was extracted with the Aurum Total RNA Mini Kit (cat. #732-6820, Bio-Rad, Hercules, CA). Cellular RNA (2 μg) was reverse transcribed using QuantiTect Reverse Transcription kit (cat. #205314, Qiagen (Germantown, MD) and real-time PCR was performed using an Applied Biosystems instrument with QuantiTect SYBR Green PCR kit (cat. no. 204143; Qiagen, Frederick, MD). Primer sequences were as follows.

Test [4] concerns purified, isolated cultured CD3+CD4+ T cells. The test can be described thus: IL-17A and INFγ in purified, isolated cultured T cells (flow cytometry). The protocol: Invariably, a small population of tightly adherent T cells were found in the fibrocyte cultures, consistent with the previous findings. Culture viability was routinely verified to be >90%. CD4^+ T cells were enriched using the CD4 isolation cocktail (Cat #0.130-096-533, Miltenyi Biotec, San Diego, CA) followed by negative selection using a magnetic column (Cat #0.130-042-401) according to manufacturer's protocol. Fibrocytes and isolated T cells were cultured and remained untreated or were incubated with human IgG isotype control (5 μg/ml) or teprotumumab (50 μg/mL) for 7 to 9 days. Single cell suspensions were stained with anti-human CD4, CD3, CD34, MHC-2, CD80, CD86, and PD-L1 (BD Biosciences) for 30 min, rinsed and fixed with CytoPerm/CytoFix (BD). They were then stained with anti-human INFγ and IL-17A for 20 min, rinsed, and subjected to the flow cytometry analysis. Gated CD34^+CXCR4^+ fibrocytes and CD4^+CD3^+ T cells were analyzed using quadrant settings based on negative isotype staining.
In vitro studies of CD34^+ fibrocytes and T cells PBMC and GD-OF monolayers were treated in vitro with human IgG isotype control (5 μg/ml), teprotumumab (50 μg/mL), H7 (5 μg/mL), linsitinib (1 μM), bTSH (5 mIU/mL), M22 (1 μg/mL), or IGF-1 (10 nM) for the intervals indicted in the figure legends in a 37° C., 5% CO2, humidified incubator until confluent. Brefeldin A (0.66 μl/ml), (Golgi Stop™, BD Biosciences), phorbol 12-myristate 13-acetate (PMA) (50 ng/ml) and ionomycin (1 μg/mL) were added for 5 h. Cells were rinsed with flow cytometry buffer (1×PBS, 0.5% BSA, 0.1% sodium azide) and stained with the relevant monoclonal antibodies.

In test [5] the test system is GD-OF. As to the kind of experiment: Slit2 and ROBO1 mRNA and Slit2 protein. To be noted: 50 μg/ml, 3 d. The protocol: FIGS. 14A-14B are graphs showing teprotumumab induces Slit2 and roundabout 1 (ROBO1) mRNA and Slit2 protein in GD-OF. Cultures were treated with either isotype control IgG or teprotumumab (50 μg/ml) for 3 d. Culture media were collected and subjected to Slit2-specific ELISA (FIG. 14A). Levels of Slit2 were normalized to respective cell layer protein content. Cellular RNA was harvested from rinsed cell layers and mRNA reverse transcribed, and cDNA subjected to quantitative real-time PCR for Slit2 and ROBO1 (FIG. 14B). Values were normalized to their respective GAPDH levels. * *, p<0.01, * **, p<0.001.
as §2

The mark [6] stands for this setting: teprotumumab 50 μg/ml or rhSlit2 50 ng/ml, 7-9 d.

In the case of teprotumumab, in test [1], the icIL-1RA protein levels result was “upregulated” and the sIL-1RA protein levels result is on record as “upregulated”. The “bTSH induction of BAFF” value in test [2] is reported as “attenuated”. For the same substance, the “effects on icIL-1RA protein levels” value in test [3] (ELISA, fibrocytes) is reported as “minimal”. Moreover, in test [3] (setting [6]), the “IL-10 mRNA, basal and bTSH-provoked expression” value was “downregulated”; the “basal and bTSH-dependent icIL-1RA and sIL-1RA mRNA levels” value is “upregulated”. Besides, the “INFγ MFI” value in test [4] (50 μg/mL, 9 d, control 10.23±0.99) was 10.32±0.89. For the same substance, the “IL-17A MFI” value in test [4] (50 μg/mL, 9 d, control isotype MFI 12.69±0.19) is reported as 12.69±0.31. Moreover, the “effect on cytokine (IL-17A, INFγ) expression levels” value in test [4] (purified T cells without fibrocytes) is “no such effects”. Besides, the Slit2 protein synthesis result in test [5] (ELISA) is “increased”. For the same substance, in test [5] (three strains of GD-OF), the “ROBO1 mRNA expression” value was “induced” and the “Slit2 mRNA expression” value was “induced”.

Source of the values: patent US20250034264A1, “REGULATING T CELL IMMUNE RESPONSE THROUGH IGF-I RECEPTOR (IGF-1R)” (The Regents of the University of Michigan, priority 2021, published 2025).
